Data taken from PMC6586287, “Blocking transmembrane219 protein signaling inhibits autophagy and restores normal cell death” (PLoS ONE, 2019).
“Also recorded” adds a separate entry of the source.

What was measured:
[1] = system: LC3 processing in Vero cells; assay: LC3-II punctate staining, LC3-mRFP transfected Vero cells; type: cell-based
Description: Immunostaining was performed as described previously (44). Briefly, cells were grown on a coverslip overnight at 5×10^5 cells/ml. 1 μl of Hoechst stain (10 μg/μl) was added to the cells for 10 min at 37°C. For tracking TM219 short cytoplasmic peptide assay, we pretreated the cells with the peptides at concentration of 0, 25, or 250 nM, then added 1 μM IGFBP3 for an hour in DMEM serum free medium. Cells were fixed with 4% paraformaldehyde and permeabilized with 1% triton x100. Cells were then blocked overnight with 10% fetal bovine serum (FBS) in PBS. Finally, cells were stained with streptavidin conjugated to Alex555 (Thermofisher Scientific) for 30 minutes in the same blocking buffer. For immunostaining, cells were stained with the primary antibody according to the manufacturer’s recommendation in the same blocking buffer. The cells were washed 10 times with PBS. Cells were blocked for 1 h with 10% FBS and then stained with secondary antibody conjugated to fluorescence dye (Thermofisher Scientific). As controls, we used secondary antibodies alone. Cells were washed 10 times with PBS and mounted with fluoromount G (Microscopic Science) before examination.
We stained the intact cellular mitochondria using TMRM dye according to the provider recommendations (Thermofisher Scientific). To evaluate the cell membrane permeability in 3D culture, we used membrane impermeable dye propodeum iodide (PI), and the membrane permeable dye (Hoechst dye) to stain the cell nuclei according to the manufacturer recommendations (Thermofisher Scientific). For autophagy efflux assay, we used chloroquine (Sigma-Alderish) (CQ) at final concentration of 200 μM as described previously. Collected images were analyzed with ImageJ software.

MDA-MB231 cells = assay: pHLIP-Cy3 insertion, fluorescence microscopy, MDA-MB231 cells in 2D and 3D culture; type: cell-based, human; details: 2D (3 days) and 3D (0.5% low melting agarose, 5 days) culture; 6 h at 37°C in DMEM buffered with PBS
Description: A- MDA-MB231 cells were grown in a complete DMEM medium for 3 days or in 0.5% low melting agarose in complete medium for 5 days were treated with phLIP-Cy3 peptide in DMEM buffered with PBS for 6 hour at 37°C. Growth media were replaced with completed DMEM medium buffered with carbonate. Cells were imaged for insertion of the peptide. […] Nuclei of the cells were stained with Hoechst stain (blue) B-Cells pretreated with pHLIP-TM219 peptide or pHLIP peptide alone for 5 days in 0.5% low melting agarose in DMEM complete media supplemented with 1 μM IGFBP3. The peptides were mixed with DMEM buffered with PBS and added to the spheroids grown in low melting agarose. After 6 hours, the media were replaced with completed DMEM media buffered with carbonate pH 7.2. Cells were incubated for additional 9 days at 37°C in a CO2 incubator. […] Living cells were assessed by Hoechst dye stain (Blue).

MCF7 cells = assay: pHLIP-Cy3 insertion into cell membrane, fluorescence microscopy, MCF7 cells; type: cell-based, human; details: pH 7.4 or pH 5.5, 5 min
Description: Fig 6 TM219 short cytoplasmic protein tail peptide disrupts the interaction between calmodulin and TM219 protein. […] As the concentration of the free peptide increased, the changes in FP signal decreased. […] B- MCF7 cells treated with pHLIP-cy3 peptide at pH 7.4 or pH 5.5 for 5 minutes. Cells were fixed and examined with fluorescence microscopy. […] Nuclei were stained with Hoechst dye (blue). C-MCF7 cells pretreated with either SCTT-pHLIP or pHLIP peptide alone were treated with 1μM IGFBP3 for 1hour in DMEM serum free medium. Cell lysates were subjected to immunoblot using anti-human phosphor-beclin1 antibody. […] TEXT PRINTED IN THE PICTURE: (A) unlabeled peptide: ki 0.02342 ± 0.001492 DOUBTS OF THE COPYIST ABOUT THIS PICTURE: Panel A, ki: no unit is printed with the value. The substance label 'unlabeled peptide' is taken from the printed x-axis title because the fit box names no substance. / Panel A: 'c 0.1 ± 0' in the fit box was left out as a fit parameter whose meaning is unclear.

Vero cells = assay: DIC microscopy of internal vacuoles, Vero cells; type: cell-based; details: wild type versus TM219 knockout Vero cells; 1 μM IGFBP3, 1 h, serum free
[2] = system: TM219 complex (calmodulin, CaMKII) in MCF7 cells; assay: immunopurification of TM219 complex, anti-CaMKII / anti-calmodulin immunoblot, MCF7 cells; type: cell-based, human; details: 1 μM IGFBP3, versus untreated and normal mouse antibody beads
[3] = system: TM219-calmodulin complex in THP1 cells; assay: co-immunoprecipitation of TM219 complex, anti-calmodulin immunoblot, THP1 cells; type: cell-based, human; details: 1 μM IGFBP3, 1 h, serum free
Description: For immunoprecipitation of TM219 complex, we treated 6X10^6 THP1 cells grown in Roswell park memorial institute 1640 medium (PRIM) without serum with 1 μM IGFBP3 for 1 hour. Cells were lysed with immunoprecipitation buffer (1% NP-40, 150 mM NaCl, and 50 mM Tris pH 8.4 in the presence of 2 X protease inhibitors (Roche)). Crosslinking of mouse anti-TM219 antibodies to protein A-Sepharose was performed as previously described. Briefly, 1 mg of the antibody was incubated with 1 ml protein A-Sepharose beads (Thermofisher scientific), with continuous mixing at 4°C for 2 h. The beads were then centrifuged and washed five times with PBS and once with 200 mM sodium borate, pH 9. Equal volumes of 40 mM dimethylsuberimidate (Thermofisher scientific) in 200 mM sodium borate were mixed with the beads, and the suspension was incubated, with continuous mixing, at room temperature for 30 min. The reaction was terminated by addition of equal volumes of 400 mM ethanolamine, and the sample was incubated for an additional 30 min. The beads were packed into a 1-cm-diameter column (Bio-RAD) and washed three times with 2 bed volumes of PBS and once with 4 bed volumes of 100 mM glycine-HCl at pH 2.4 to remove non-cross-linked antibodies. Finally, the cross-linked antibody beads were washed with PBS until the pH reached 7 and stored at 4°C in PBS containing 0.02% sodium azide. […]

[4] = system: cytosolic calcium in MCF7 cells; details: independent on IGF or heparin; ref [55]; cited from earlier work
Source text: After that we compared the effects of IGFBP3 on elevation of intracellular calcium in these cells. […] However, no sign ...

[5] = system: phospho-Beclin1 in MCF7 cells; assay: Beclin1 phosphorylation / autophagy immunoblot, MCF7 cells; type: cell-based, human; details: 1 μM IGFBP3, 1 h, serum free; wild type versus TM219 knockout; anti-phospho-beclin1, anti-LC3
Description: For phosphorylation assay of Beclin1 protein, we treated 6x10^6 MCF7 cells grown in DMEM serum free medium with 1 μM IGFBP3. Lysates were prepared in RIPA buffer in presence of 2X protease and phosphatase inhibitors (Thermofisher Scientific). Lysates were clarified by centrifugation at 10,000 rpm for 30 minutes at 4°C. Finally, the blotted membranes were probed with anti-TM219, LC3, calmodulin, phospho-beclin1, or β-actin. To quantify the ratio between LC3-II and LC3-I, we used an image densitometry method using ImageJ software.

[6] = system: cytosolic calcium in MCF7 cells; assay: cytosolic calcium, colorimetric kit, MCF7 cells; type: cell-based, human; details: 1 μM IGFBP3, 5 min, serum free
Description: We used a colorimetric kit to measure the increase in the cytosolic calcium in MCF7 cells according to the provider recommendations (Abcam). MCF7 cells were grown in completed DMEM medium at density of 5x10^5 cells/ml in 6 well plates. We compared the effects of 1μM IGFBP3 on the wild type, TM219 knockout and untreated MCF7 cells after 5 minutes in serum free medium. As a positive control we used […] ionomycin (Thermofishter Scientific). As a negative control we pretreated MCF7 cells with […] BAPTA for 30 minutes (Thermofisher Scientific). Experiments were run in triplicate.

[7] = fluorescence anisotropy control binding to empty nanodisc
Description: Reconstituted TM219 into 13 nm nanodisc and labeling of our purified calmodulin or IGFBP3 (R&D systems) with BODIPY-TRM-X-succinimidyl ester dye were described previously. […] Serial dilution of the TM219 short cytoplasmic peptide (1pM-10mM) was used. Fluorescence anisotropy assays were done in triplicates and data represent an average of three independent experiments. Each sample was run in triplicates and an average of 60 readings was used for calculation. Binding constants (KDs) or inhibition constant (Ki) were determined with Origin 7 (OriginLab) by fitting the data as described previously.

With `CCN(CC)CCCC(C)Nc1ccnc2cc(Cl)ccc12` (centres unmarked) [chloroquine, reference compound] as the compound, how does the “LC3-II punctate accumulation with chloroquine” value ([1]; 200 μM chloroquine plus 1 μM IGFBP3) read?
The value was “this punctate stain was accumulated in the cytoplasm”.

What about the “LC3-II punctate accumulation with chloroquine” value ([1]; 200 μM chloroquine plus 1 μM IGFBP3, listed as CQ) of the same compound?
Its value is “accumulates LCII positive vesicles in the cytoplasm of Vero cells”.

Which “insertion into plasma membrane of MDA-MB231 cells” value (MDA-MB231 cells) does the source give for “AEQNPIYWARYADWLFTTPLLLLDLALLVDADEGTC-s-s-C(cy3) [pHLIP-cy3]” here?
The value was “insertion of pHLIP-cy3 peptide into the plasma membrane of MAD-MB231 in both two dimension and three dimension cell cultures”.

What about the “insertion into plasma membrane of MCF7 cells” value (MCF7 cells) of the same compound?
The value was “Staining of the cells with red dye indicates insertion of pHLIP-cy3 into the cell membrane of MCF7 cells”.

With “Insulin-like growth factor binding protein 3 [IGFBP3]” as the compound, how does the internal vacuoles (Vero cells) read?
Its internal vacuoles is “TM219 wild type Vero cells demonstrated larger internal vacuoles after treatment with IGFBP3 compared to TM219 knockout Vero cells; also recorded: wild type Vero cells showed larger internal vacuoles”.

And the “association of calmodulin and CaMKII with TM219 complex” value [2]?
Its value is “TM219 protein recruits calmodulin and calmodulin dependent kinase II after treatment with IGFBP3; also recorded: Purified proteins from cells treated with IGFBP3 reacted specifically with anti-CaMKII antibody”.

What about the “TM219-calmodulin complex formation (co-immunoprecipitation)” value [3] of the same compound?
Its value is “immunoprecipitation with anti-TM219 consistently brought down calmodulin”.

What about the “intracellular calcium release in MCF7 cells (previous studies)” value [4] of the same compound?
The value was “activates intracellular rapid release of intracellular calcium in MCF7 cells”.

What about the “LC3 processing (LC3-II punctate staining)” value ([1]; Vero cells with LC3-mRFP, 1 μM IGFBP3, 1 h, serum free, mean +/- SEM plotted) of the same compound?
The value was “significant increase in processing of LC3; also recorded: significant increase in number of LCII punctate stain”.

And the “autophagy activation in MCF7 cells” value [5]?
Its value is “activates autophagy in MCF7 cells”.

And the “cytosolic calcium, TM219 knockout versus wild type” value [6]?
The value was “no significant difference”.

What about the cytosolic calcium ([6]; % of ionomycin reading, BAPTA reading subtracted) of the same compound?
Its cytosolic calcium is “triggered elevation of the cytosolic calcium in MCF7 independent of TM219 receptor; also recorded: relatively higher signal of calcium relative to untreated MCF7 cells”.

What about the “binding of labelled IGFBP3 to empty nanodisc” value ([7]; empty nanodisc 0-2000 nM, fluorescence anisotropy) of the same compound?
The value was “No specific binding was detected”.

Which “binding of calmodulin to empty nanodisc” value ([7]; empty nanodisc 0-100 μM, 1 mM calcium chloride, 1 μM IGFBP3) does the source give for calmodulin here?
The value was “No specific binding was detected; also recorded: No specific binding was observed”.
